Test system: E. faecalis (CL 4877)
Assay: Zone of inhibition screen, 96 well agar array format
Format: cell-based
Parameters: scale not given here
Settings: zone of inhibition relative to 1 mg/ml stock solution of p-chlorobiphenylvancomycin
Description: The antibacterial activity of each of the compounds against the bacterial strains E. faceium (ATCC 49624), S. epidermidis (ATCC 12228), S. aureus (ATCC 29213), E. faecalis (CL 4877) and E. faecalis (ATCC 292121) was tested. Each of the compounds was screened in a 96 will agar array format.

SMILES | zone score, E. faecalis CL 4877
CC1OC(OC2C(Oc3c4cc5cc3Oc3ccc(cc3Cl)C(O)C3NC(=O)C(NC(=O)C5NC(=O)C(CC(N)=O)NC(=O)C(NC(=O)C(O)CN)C(O)c5ccc(c(Cl)c5)O4)c4ccc(O)c(c4)-c4c(O)cc(O)cc4C(C(=O)O)NC3=O)OC(CO)C(O)C2O)CC(C)(NCc2ccc(-c3ccc(Cl)cc3)cc2)C1O (mixture of isomers) [Compound 60] | 2
CC(=O)NCCCCC(NC(C)=O)C(=O)NC1C(=O)NC(CC(N)=O)C(=O)NC2C(=O)NC3C(=O)NC(C(=O)NC(C(=O)O)c4cc(O)cc(O)c4-c4cc3ccc4O)C(O)c3ccc(c(Cl)c3)Oc3cc2cc(c3OC2OC(CO)C(O)C(O)C2OC2CC(C)(NCc3ccc(-c4ccc(Cl)cc4)cc3)C(O)C(C)O2)Oc2ccc(cc2Cl)C1O (mixture of isomers) [Compound 114] | 2
CC1OC(OC2C(Oc3c4cc5cc3Oc3ccc(cc3Cl)C(O)C(NC(=O)C3OC(O)C(O)C(O)C3O)C(=O)NC(CC(N)=O)C(=O)NC5C(=O)NC3C(=O)NC(C(=O)NC(C(=O)O)c5cc(O)cc(O)c5-c5cc3ccc5O)C(O)c3ccc(c(Cl)c3)O4)OC(CO)C(O)C2O)CC(C)(NCc2ccc(-c3ccc(Cl)cc3)cc2)C1O (mixture of isomers) [Compound 147] | 2
CC1OC(OC2C(Oc3c4cc5cc3Oc3ccc(cc3Cl)C(O)C(NC(=O)C3OC(O)C(O)C(O)C3O)C(=O)NC(CC(N)=O)C(=O)NC5C(=O)NC3C(=O)NC(C(=O)NC(C(=O)O)c5cc(O)cc(O)c5-c5cc3ccc5O)C(O)c3ccc(c(Cl)c3)O4)OC(CO)C(O)C2O)CC(C)(NCc2ccc(-c3ccc(Cl)cc3)cc2)C1O (mixture of isomers) [Compound 148] | 2
CC1OC(OC2C(Oc3c4cc5cc3Oc3ccc(cc3Cl)C(O)C3NC(=O)C(NC(=O)C5NC(=O)C(CC(N)=O)NC(=O)C(NC(=O)C(O)CO)C(O)c5ccc(c(Cl)c5)O4)c4ccc(O)c(c4)-c4c(O)cc(O)cc4C(C(=O)O)NC3=O)OC(CO)C(O)C2O)CC(C)(NCc2ccc(-c3ccc(Cl)cc3)cc2)C1O (mixture of isomers) [Compound 152] | 2
CC(=O)NC(C)C(=O)NC1C(=O)NC(CC(N)=O)C(=O)NC2C(=O)NC3C(=O)NC(C(=O)NC(C(=O)O)c4cc(O)cc(O)c4-c4cc3ccc4O)C(O)c3ccc(c(Cl)c3)Oc3cc2cc(c3OC2OC(CO)C(O)C(O)C2OC2CC(C)(NCc3ccc(-c4ccc(Cl)cc4)cc3)C(O)C(C)O2)Oc2ccc(cc2Cl)C1O (mixture of isomers) [Compound 174] | 2
CC(=O)NC(CO)C(=O)NC1C(=O)NC(CC(N)=O)C(=O)NC2C(=O)NC3C(=O)NC(C(=O)NC(C(=O)O)c4cc(O)cc(O)c4-c4cc3ccc4O)C(O)c3ccc(c(Cl)c3)Oc3cc2cc(c3OC2OC(CO)C(O)C(O)C2OC2CC(C)(NCc3ccc(-c4ccc(Cl)cc4)cc3)C(O)C(C)O2)Oc2ccc(cc2Cl)C1O (mixture of isomers) [Compound 178] | 2
C[C@H]1O[C@H](O[C@H]2[C@H](Oc3c4cc5cc3Oc3ccc(cc3Cl)[C@@H](O)[C@@H](NC(=O)[C@@H](N)CC(=O)NC(c3ccccc3)(c3ccccc3)c3ccccc3)C(=O)N[C@@H](CC(N)=O)C(=O)N[C@H]5C(=O)N[C@H]3C(=O)N[C@H](C(=O)N[C@@H](C(=O)O)c5cc(O)cc(O)c5-c5cc3ccc5O)[C@H](O)c3ccc(c(Cl)c3)O4)O[C@H](CO)[C@@H](O)[C@@H]2O)C[C@@](C)(NCc2ccc(-c3ccc(Cl)cc3)cc2)[C@H]1O [Compound 2] | 2
COc1ccc(C(SC[C@H](N)C(=O)N[C@H]2C(=O)N[C@@H](CC(N)=O)C(=O)N[C@H]3C(=O)N[C@H]4C(=O)N[C@H](C(=O)N[C@@H](C(=O)O)c5cc(O)cc(O)c5-c5cc4ccc5O)[C@H](O)c4ccc(c(Cl)c4)Oc4cc3cc(c4O[C@@H]3O[C@H](CO)[C@@H](O)[C@H](O)[C@H]3O[C@@H]3C[C@@](C)(NCc4ccc(-c5ccc(Cl)cc5)cc4)[C@@H](O)[C@@H](C)O3)Oc3ccc(cc3Cl)[C@H]2O)(c2ccccc2)c2ccccc2)cc1 [Compound 6] | 2
CC(OC(c1ccccc1)(c1ccccc1)c1ccccc1)[C@H](N)C(=O)N[C@H]1C(=O)N[C@@H](CC(N)=O)C(=O)N[C@H]2C(=O)N[C@H]3C(=O)N[C@H](C(=O)N[C@@H](C(=O)O)c4cc(O)cc(O)c4-c4cc3ccc4O)[C@H](O)c3ccc(c(Cl)c3)Oc3cc2cc(c3O[C@@H]2O[C@H](CO)[C@@H](O)[C@H](O)[C@H]2O[C@@H]2C[C@@](C)(NCc3ccc(-c4ccc(Cl)cc4)cc3)[C@@H](O)[C@@H](C)O2)Oc2ccc(cc2Cl)[C@H]1O (some centres unmarked) [Compound 11] | 2
C[C@H]1O[C@H](O[C@H]2[C@H](Oc3c4cc5cc3Oc3ccc(cc3Cl)[C@@H](O)[C@@H](NC(=O)[C@H](N)CSC(c3ccccc3)(c3ccccc3)c3ccccc3)C(=O)N[C@@H](CC(N)=O)C(=O)N[C@H]5C(=O)N[C@H]3C(=O)N[C@H](C(=O)N[C@@H](C(=O)O)c5cc(O)cc(O)c5-c5cc3ccc5O)[C@H](O)c3ccc(c(Cl)c3)O4)O[C@H](CO)[C@@H](O)[C@@H]2O)C[C@@](C)(NCc2ccc(-c3ccc(Cl)cc3)cc2)[C@H]1O [Compound 14] | 2
Cc1ccc(C(NCCCCC(N)C(=O)NC2C(=O)NC(CC(N)=O)C(=O)NC3C(=O)NC4C(=O)NC(C(=O)NC(C(=O)O)c5cc(O)cc(O)c5-c5cc4ccc5O)C(O)c4ccc(c(Cl)c4)Oc4cc3cc(c4OC3OC(CO)C(O)C(O)C3OC3CC(C)(NCc4ccc(-c5ccc(Cl)cc5)cc4)C(O)C(C)O3)Oc3ccc(cc3Cl)C2O)(c2ccccc2)c2ccccc2)cc1 (centres unmarked) [Compound 40] | 2
CC(=O)NCSC(C)(C)C(N)C(=O)NC1C(=O)NC(CC(N)=O)C(=O)NC2C(=O)NC3C(=O)NC(C(=O)NC(C(=O)O)c4cc(O)cc(O)c4-c4cc3ccc4O)C(O)c3ccc(c(Cl)c3)Oc3cc2cc(c3OC2OC(CO)C(O)C(O)C2OC2CC(C)(NCc3ccc(-c4ccc(Cl)cc4)cc3)C(O)C(C)O2)Oc2ccc(cc2Cl)C1O (centres unmarked) [Compound 46] | 2
CC(N)C(=O)NC1C(=O)NC(CC(N)=O)C(=O)NC2C(=O)NC3C(=O)NC(C(=O)NC(C(=O)O)c4cc(O)cc(O)c4-c4cc3ccc4O)C(O)c3ccc(c(Cl)c3)Oc3cc2cc(c3OC2OC(CO)C(O)C(O)C2OC2CC(C)(NCc3ccc(-c4ccc(Cl)cc4)cc3)C(O)C(C)O2)Oc2ccc(cc2Cl)C1O (centres unmarked) [Compound 51] | 2
CC(=O)NCSCC(N)C(=O)NC1C(=O)NC(CC(N)=O)C(=O)NC2C(=O)NC3C(=O)NC(C(=O)NC(C(=O)O)c4cc(O)cc(O)c4-c4cc3ccc4O)C(O)c3ccc(c(Cl)c3)Oc3cc2cc(c3OC2OC(CO)C(O)C(O)C2OC2CC(C)(NCc3ccc(-c4ccc(Cl)cc4)cc3)C(O)C(C)O2)Oc2ccc(cc2Cl)C1O (centres unmarked) [Compound 55] | 2
CC1OC(OC2C(Oc3c4cc5cc3Oc3ccc(cc3Cl)C(O)C3NC(=O)C(NC(=O)C5NC(=O)C(CC(N)=O)NC(=O)C(NC(=O)C(N)Cc5c[nH]cn5)C(O)c5ccc(c(Cl)c5)O4)c4ccc(O)c(c4)-c4c(O)cc(O)cc4C(C(=O)O)NC3=O)OC(CO)C(O)C2O)CC(C)(NCc2ccc(-c3ccc(Cl)cc3)cc2)C1O (centres unmarked) [Compound 58] | 2
CC1OC(OC2C(Oc3c4cc5cc3Oc3ccc(cc3Cl)C(O)C(NC(=O)C3CCC(O)N3C(=O)C3CCCN3C(=O)CN)C(=O)NC(CC(N)=O)C(=O)NC5C(=O)NC3C(=O)NC(C(=O)NC(C(=O)O)c5cc(O)cc(O)c5-c5cc3ccc5O)C(O)c3ccc(c(Cl)c3)O4)OC(CO)C(O)C2O)CC(C)(NCc2ccc(-c3ccc(Cl)cc3)cc2)C1O (centres unmarked) [Compound 69] | 2
CC(C)C(NC(=O)CN)C(=O)NC1C(=O)NC(CC(N)=O)C(=O)NC2C(=O)NC3C(=O)NC(C(=O)NC(C(=O)O)c4cc(O)cc(O)c4-c4cc3ccc4O)C(O)c3ccc(c(Cl)c3)Oc3cc2cc(c3OC2OC(CO)C(O)C(O)C2OC2CC(C)(NCc3ccc(-c4ccc(Cl)cc4)cc3)C(O)C(C)O2)Oc2ccc(cc2Cl)C1O (centres unmarked) [Compound 70] | 2
CC1OC(OC2C(Oc3c4cc5cc3Oc3ccc(cc3Cl)C(O)C3NC(=O)C(NC(=O)C5NC(=O)C(CC(N)=O)NC(=O)C(NC(=O)C(N)Cc5c[nH]cn5)C(O)c5ccc(c(Cl)c5)O4)c4ccc(O)c(c4)-c4c(O)cc(O)cc4C(C(=O)O)NC3=O)OC(CO)C(O)C2O)CC(C)(NCc2ccc(-c3ccc(Cl)cc3)cc2)C1O (centres unmarked) [Compound 71] | 2
C=CCOC(=O)NCC(N)C(=O)NC1C(=O)NC(CC(N)=O)C(=O)NC2C(=O)NC3C(=O)NC(C(=O)NC(C(=O)O)c4cc(O)cc(O)c4-c4cc3ccc4O)C(O)c3ccc(c(Cl)c3)Oc3cc2cc(c3OC2OC(CO)C(O)C(O)C2OC2CC(C)(NCc3ccc(-c4ccc(Cl)cc4)cc3)C(O)C(C)O2)Oc2ccc(cc2Cl)C1O (centres unmarked) [Compound 92] | 2
CC1OC(OC2C(Oc3c4cc5cc3Oc3ccc(cc3Cl)C(O)C3NC(=O)C(NC(=O)C5NC(=O)C(CC(N)=O)NC(=O)C(NC(=O)C5CC(=O)N5)C(O)c5ccc(c(Cl)c5)O4)c4ccc(O)c(c4)-c4c(O)cc(O)cc4C(C(=O)O)NC3=O)OC(CO)C(O)C2O)CC(C)(NCc2ccc(-c3ccc(Cl)cc3)cc2)C1O (centres unmarked) [Compound 96] | 2
COCCOCCOCC(=O)NC1C(=O)NC(CC(N)=O)C(=O)NC2C(=O)NC3C(=O)NC(C(=O)NC(C(=O)O)c4cc(O)cc(O)c4-c4cc3ccc4O)C(O)c3ccc(c(Cl)c3)Oc3cc2cc(c3OC2OC(CO)C(O)C(O)C2OC2CC(C)(NCc3ccc(-c4ccc(Cl)cc4)cc3)C(O)C(C)O2)Oc2ccc(cc2Cl)C1O (centres unmarked) [Compound 101] | 2
C=C(NC(C)=O)C(=O)NC1C(=O)NC(CC(N)=O)C(=O)NC2C(=O)NC3C(=O)NC(C(=O)NC(C(=O)O)c4cc(O)cc(O)c4-c4cc3ccc4O)C(O)c3ccc(c(Cl)c3)Oc3cc2cc(c3OC2OC(CO)C(O)C(O)C2OC2CC(C)(NCc3ccc(-c4ccc(Cl)cc4)cc3)C(O)C(C)O2)Oc2ccc(cc2Cl)C1O (centres unmarked) [Compound 102] | 2
